In ChEMBL document CHEMBL3734713, “4-Thiazolidinone derivatives as potent antimicrobial agents: microwave-assisted synthesis, biological evaluation and docking studies” (2015):
Converted amounts (≈) assume the structure as drawn.

How the values were obtained:
Listeria monocytogenes = experiment: Antibacterial activity against Listeria monocytogenes NCTC 7973 assessed as growth inhibition after 24 hrs at 37 degC by iodonitrotetrazolium chloride staining based microdilution broth assay; assay type: functional; conditions: NCTC 7973, 24 h
Bacillus cereus = experiment: Antibacterial activity against clinical isolates of Bacillus cereus assessed as growth inhibition after 24 hrs at 37 degC by iodonitrotetrazolium chloride staining based microdilution broth assay; assay type: functional
Aspergillus ochraceus = experiment: Antifungal activity against Aspergillus ochraceus ATCC 12066 assessed as growth inhibition after 72 hrs at 28 degC by serial dilution method; assay type: functional; conditions: for MIC: Aspergillus ochraceus, ATCC 12066, 72 h
Penicillium ochrochloron = experiment: Antifungal activity against Penicillium ochrochloron ATCC 9112 assessed as growth inhibition after 72 hrs at 28 degC by serial dilution method; assay type: functional; conditions: for MIC: Penicillium ochrochloron, ATCC 9112, 72 h
Talaromyces funiculosus = experiment: Antifungal activity against Penicillium funiculosum ATCC 36839 assessed as growth inhibition after 72 hrs at 28 degC by serial dilution method; assay type: functional; conditions: for MIC: Talaromyces funiculosus, ATCC 36839, 72 h
Salmonella typhimurium = experiment: Antibacterial activity against Salmonella typhimurium ATCC 13311 assessed as growth inhibition after 24 hrs at 37 degC by iodonitrotetrazolium chloride staining based microdilution broth assay; assay type: functional, Salmonella enterica subsp. enterica serovar Typhimurium; conditions: Salmonella enterica, ATCC 13311, 24 h
Trichoderma viride = experiment: Antifungal activity against Trichoderma viride IAM 5061 assessed as growth inhibition after 72 hrs at 28 degC by serial dilution method; assay type: functional; conditions: for MIC: Trichoderma viride, IAM 5061, 72 h
Aspergillus fumigatus = experiment: Antifungal activity against Aspergillus fumigatus ATCC 1022 assessed as growth inhibition after 72 hrs at 28 degC by serial dilution method; assay type: functional; conditions: for MIC: Aspergillus fumigatus, ATCC 1022, 72 h
Aspergillus niger = experiment: Antifungal activity against Aspergillus niger ATCC 6275 assessed as growth inhibition after 72 hrs at 28 degC by serial dilution method; assay type: functional; conditions: for MIC: Aspergillus niger, ATCC 6275, 72 h
Aspergillus versicolor = experiment: Antifungal activity against Aspergillus versicolor ATCC 11730 assessed as growth inhibition after 72 hrs at 28 degC by serial dilution method; assay type: functional; conditions: for MIC: Aspergillus versicolor, ATCC 11730, 72 h
Candida albicans = experiment: Antifungal activity against Candida albicans ATCC 10231 assessed as growth inhibition after 72 hrs at 28 degC by serial dilution method; assay type: functional; conditions: for MIC: Candida albicans, ATCC 10231, 72 h
Enterobacter cloacae = experiment: Antibacterial activity against human isolate of Enterobacter cloacae assessed as growth inhibition after 24 hrs at 37 degC by iodonitrotetrazolium chloride staining based microdilution broth assay; assay type: functional
Staphylococcus aureus = experiment: Antibacterial activity against Staphylococcus aureus ATCC 6538 assessed as growth inhibition after 24 hrs at 37 degC by iodonitrotetrazolium chloride staining based microdilution broth assay; assay type: functional; conditions: ATCC 6538, 24 h
[1] = target: Human immunodeficiency virus type 1 reverse transcriptase (Human immunodeficiency virus 1) (UniProt Q72547); experiment: Inhibition of HIV1 reverse transcriptase assessed as residual enzyme activity by measuring reduction in [3H]dTTP incorporation into poly(rA)-oligo(dT) at 4 uM incubated for 15 mins by scintillation counting method relative to control
Pseudomonas aeruginosa = experiment: Antibacterial activity against Pseudomonas aeruginosa ATCC 27853 assessed as growth inhibition after 24 hrs at 37 degC by iodonitrotetrazolium chloride staining based microdilution broth assay; assay type: functional; conditions: ATCC 27853, 24 h
Escherichia coli = experiment: Antibacterial activity against Escherichia coli ATCC 35210 assessed as growth inhibition after 24 hrs at 37 degC by iodonitrotetrazolium chloride staining based microdilution broth assay; assay type: functional; conditions: ATCC 35210, 24 h
Micrococcus flavus = experiment: Antibacterial activity against Micrococcus flavus ATCC 10240 assessed as growth inhibition after 24 hrs at 37 degC by iodonitrotetrazolium chloride staining based microdilution broth assay; assay type: functional; conditions: ATCC 10240, 24 h

Row | MIC (Listeria monocytogenes) [µM] | MIC (Bacillus cereus) [µM] | MIC (Aspergillus ochraceus) [µM] | MIC (Penicillium ochrochloron) [µM] | MIC (Talaromyces funiculosus) [µM] | MIC (Salmonella typhimurium) [µM] | MIC (Trichoderma viride) [µM] | MIC (Aspergillus fumigatus) [µM] | MIC (Aspergillus niger) [µM] | MIC (Aspergillus versicolor) [µM] | Compound | MBC (Listeria monocytogenes) [µM] | MBC (Bacillus cereus) [µM] | MFC99.5 (Aspergillus ochraceus) [×10⁻² umol/ml] | MFC99.5 (Penicillium ochrochloron) [×10⁻² umol/ml] | MFC99.5 (Talaromyces funiculosus) [×10⁻² umol/ml] | MBC (Salmonella typhimurium) [µM] | MFC99.5 (Trichoderma viride) [×10⁻² umol/ml] | MFC99.5 (Aspergillus fumigatus) [×10⁻² umol/ml] | MFC99.5 (Aspergillus niger) [×10⁻² umol/ml] | MFC99.5 (Aspergillus versicolor) [×10⁻² umol/ml] | further results
1 | 16.2 (≈ 7 µg/mL) | 30.6 (≈ 13.2 µg/mL) | 0.3 (≈ 0.129 µg/mL) | 5.8 (≈ 2.5 µg/mL) | 5.8 (≈ 2.5 µg/mL) | 62.5 (≈ 26.9 µg/mL) | 5.8 (≈ 2.5 µg/mL) | 5.8 (≈ 2.5 µg/mL) | 9 (≈ 3.88 µg/mL) | 5.8 (≈ 2.5 µg/mL) | O=C1CSC(c2ccccc2Cl)N1c1nc(C23CC4CC(CC(C4)C2)C3)cs1 (configuration not stated) | 125 (≈ 53.9 µg/mL) | 125 (≈ 53.9 µg/mL) | 0.07 | 1.16 | 1.16 | 125 (≈ 53.9 µg/mL) | 1.16 | 1.16 | 1.16 | 1.16 | MFC99.5 (Candida albicans): 2.32 ×10⁻² umol/ml; MIC (Candida albicans): 11.6 µM (≈ 5 µg/mL); MBC (Enterobacter cloacae): 125 µM (≈ 53.9 µg/mL); MIC (Enterobacter cloacae): 30.6 µM (≈ 13.2 µg/mL); MBC (Staphylococcus aureus): 125 µM (≈ 53.9 µg/mL); MIC (Staphylococcus aureus): 62.5 µM (≈ 26.9 µg/mL); Activity [1]: 99.1%; MBC (Pseudomonas aeruginosa): 125 µM (≈ 53.9 µg/mL); MIC (Pseudomonas aeruginosa): 62.5 µM (≈ 26.9 µg/mL); MBC (Escherichia coli): 125 µM (≈ 53.9 µg/mL); MIC (Escherichia coli): 62.5 µM (≈ 26.9 µg/mL); MBC (Micrococcus flavus): 125 µM (≈ 53.9 µg/mL); MIC (Micrococcus flavus): 45 µM (≈ 19.4 µg/mL)
2 | 62.5 (≈ 26.9 µg/mL) | 16.2 (≈ 7 µg/mL) | 0.45 (≈ 0.194 µg/mL) | 2.9 (≈ 1.25 µg/mL) | 2.9 (≈ 1.25 µg/mL) | 30.6 (≈ 13.2 µg/mL) | 0.3 (≈ 0.129 µg/mL) | 2.9 (≈ 1.25 µg/mL) | 0.3 (≈ 0.129 µg/mL) | 0.3 (≈ 0.129 µg/mL) | O=C1CSC(c2cccc(Cl)c2)N1c1nc(C23CC4CC(CC(C4)C2)C3)cs1 (configuration not stated) | 125 (≈ 53.9 µg/mL) | 62.5 (≈ 26.9 µg/mL) | 0.07 | 0.58 | 0.58 | 62.5 (≈ 26.9 µg/mL) | 0.045 | 0.58 | 0.07 | 0.07 | MFC99.5 (Candida albicans): 1.16 ×10⁻² umol/ml; MIC (Candida albicans): 5.8 µM (≈ 2.5 µg/mL); MBC (Enterobacter cloacae): 125 µM (≈ 53.9 µg/mL); MIC (Enterobacter cloacae): 62.5 µM (≈ 26.9 µg/mL); MBC (Staphylococcus aureus): 62.5 µM (≈ 26.9 µg/mL); MIC (Staphylococcus aureus): 30.6 µM (≈ 13.2 µg/mL); Activity [1]: 99.3%; MBC (Pseudomonas aeruginosa): 125 µM (≈ 53.9 µg/mL); MIC (Pseudomonas aeruginosa): 62.5 µM (≈ 26.9 µg/mL); MBC (Escherichia coli): 125 µM (≈ 53.9 µg/mL); MIC (Escherichia coli): 62.5 µM (≈ 26.9 µg/mL); MBC (Micrococcus flavus): 125 µM (≈ 53.9 µg/mL); MIC (Micrococcus flavus): 62.5 µM (≈ 26.9 µg/mL)
3 | 62.5 (≈ 26.7 µg/mL) | 16.3 (≈ 6.95 µg/mL) | 1.4 (≈ 0.597 µg/mL) | 0.9 (≈ 0.384 µg/mL) | 2.9 (≈ 1.24 µg/mL) | 30.6 (≈ 13.1 µg/mL) | 1.4 (≈ 0.597 µg/mL) | 11.7 (≈ 4.99 µg/mL) | 2.9 (≈ 1.24 µg/mL) | 2.9 (≈ 1.24 µg/mL) | COc1ccc(C2SCC(=O)N2c2nc(C34CC5CC(CC(C5)C3)C4)cs2)cc1 (configuration not stated) | 125 (≈ 53.3 µg/mL) | 30.6 (≈ 13.1 µg/mL) | 0.29 | 0.14 | 0.58 | 62.5 (≈ 26.7 µg/mL) | 0.29 | 2.34 | 0.58 | 0.58 | MFC99.5 (Candida albicans): 2.34 ×10⁻² umol/ml; MIC (Candida albicans): 11.7 µM (≈ 4.99 µg/mL); MBC (Enterobacter cloacae): 125 µM (≈ 53.3 µg/mL); MIC (Enterobacter cloacae): 30.6 µM (≈ 13.1 µg/mL); MBC (Staphylococcus aureus): 62.5 µM (≈ 26.7 µg/mL); MIC (Staphylococcus aureus): 30.6 µM (≈ 13.1 µg/mL); Activity [1]: 100%; MBC (Pseudomonas aeruginosa): 62.5 µM (≈ 26.7 µg/mL); MIC (Pseudomonas aeruginosa): 30.6 µM (≈ 13.1 µg/mL); MBC (Escherichia coli): 125 µM (≈ 53.3 µg/mL); MIC (Escherichia coli): 30.6 µM (≈ 13.1 µg/mL); MBC (Micrococcus flavus): 125 µM (≈ 53.3 µg/mL); MIC (Micrococcus flavus): 62.5 µM (≈ 26.7 µg/mL)
4 | 438 (≈ 200 µg/mL) | 219 (≈ 100 µg/mL) | 110 (≈ 50 µg/mL) | 219 (≈ 100 µg/mL) | 219 (≈ 100 µg/mL) | 219 (≈ 100 µg/mL) | 219 (≈ 100 µg/mL) | 219 (≈ 100 µg/mL) | 219 (≈ 100 µg/mL) | 219 (≈ 100 µg/mL) | COc1ccc(OC)c(C2SCC(=O)N2c2nc(C34CC5CC(CC(C5)C3)C4)cs2)c1 (configuration not stated) | 657 (≈ 300 µg/mL) | 438 (≈ 200 µg/mL) | 32.85 | 43.8 | 43.8 | 438 (≈ 200 µg/mL) | 21.9 | 32.85 | 87.6 | 32.85 | MFC99.5 (Candida albicans): 109.5 ×10⁻² umol/ml; MIC (Candida albicans): 876 µM (≈ 400 µg/mL); MBC (Enterobacter cloacae): 438 µM (≈ 200 µg/mL); MIC (Enterobacter cloacae): 219 µM (≈ 100 µg/mL); MBC (Staphylococcus aureus): 657 µM (≈ 300 µg/mL); MIC (Staphylococcus aureus): 438 µM (≈ 200 µg/mL); Activity [1]: 80.7%; MBC (Pseudomonas aeruginosa): 438 µM (≈ 200 µg/mL); MIC (Pseudomonas aeruginosa): 438 µM (≈ 200 µg/mL); MBC (Escherichia coli): 438 µM (≈ 200 µg/mL); MIC (Escherichia coli): 219 µM (≈ 100 µg/mL); MBC (Micrococcus flavus): 438 µM (≈ 200 µg/mL); MIC (Micrococcus flavus): 219 µM (≈ 100 µg/mL)
